Test results published in US8119626B2, “Oxime derivative and preparations thereof” (Mitsubishi Tanabe Pharma Corporation, priority 2005, dated 2012).

The compounds below were run against T1, human-liver type GST-GK (Homo sapiens, UniProt P35557) (assay: Glucokinase activation effect (G6PDH-coupled NADPH assay)). Settings: 5 mM glucose, 5 mM ATP, 30° C., absorbance 340 nm for 15 minutes, 5% DMSO.
T1 construct: made in house; host or cells: E. coli
T1 sequence (P35557 1-466 isoform P35557-2): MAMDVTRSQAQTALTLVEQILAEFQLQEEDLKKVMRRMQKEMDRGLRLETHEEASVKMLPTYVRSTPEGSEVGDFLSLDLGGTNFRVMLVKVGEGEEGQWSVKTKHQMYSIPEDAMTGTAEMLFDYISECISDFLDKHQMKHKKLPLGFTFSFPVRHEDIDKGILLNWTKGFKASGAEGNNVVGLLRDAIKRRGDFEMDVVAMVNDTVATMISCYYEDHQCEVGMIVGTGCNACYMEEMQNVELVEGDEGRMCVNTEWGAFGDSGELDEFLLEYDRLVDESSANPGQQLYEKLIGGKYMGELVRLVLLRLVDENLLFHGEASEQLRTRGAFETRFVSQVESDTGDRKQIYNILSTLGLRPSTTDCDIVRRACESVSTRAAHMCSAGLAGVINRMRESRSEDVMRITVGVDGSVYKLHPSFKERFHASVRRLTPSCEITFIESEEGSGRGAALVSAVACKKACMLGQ
Format: biochemical
Procedure: A glucokinase activity was examined by measuring the amount of NADPH obtained in generating 6-phosphogluconic acid from glucose-6-phosphoric acid by a coupling enzyme glucose-6-phosphate dehydrogenase not by measuring directly the produced glucose-6-phosphoric acid. The glucokinase enzyme used in the examination is human-liver type GST-GK expressed in E. Coli. The measurement of GK activity was carried out by the following procedures.
Twenty five mM HEPES buffer (pH7.4) containing 25 mM MgCl2, […], 1 mM DTT, 5 mM NADP (Roche), 16.64 μg/mL G6PDH (Roche 737-232 grade II from yeast) and 2.8 μg/mL GST-GK was prepared as a reaction solution. An evaluating compound dissolved in DMSO was added to the reaction solution to give final concentration of 0.001 to 100 μM (5% DMSO). Thereto was added glucose (final concentration of 5 mM) as a substrate and was added ATP (final concentration of 5 mM), and the reaction was started. The reaction temperature is 30° C. and a generation of NADPH was monitored by changes of absorbance of 340 nm. An increasing in absorbance for 15 minutes from starting reaction was measured and the blank-corrected value was used as GK activity (mOD/min). EC50 level was calculated by a GK activity level in at each concentration of an evaluating compound.
Work on O=C1CN(Cc2cnc(NC(=O)/C(=N/O[C@@H]3CCOC3)c3ccc(S(=O)(=O)C4CC4)cc3)s2)CCN1 [Example 6] yielded an EC50 of 1.2 µM.
With CC(=O)N1CCN(Cc2cnc(NC(=O)/C(=N/O[C@@H]3CCOC3)c3ccc(S(=O)(=O)C4CC4)cc3)s2)C[C@@H]1C [Example 9] the EC50 was 0.55 µM.
For CC(=O)N1CCN(Cc2cnc(NC(=O)/C(=N/O[C@@H]3CCOC3)c3ccc(S(=O)(=O)C4CC4)cc3)s2)CC1 [Example 10], the EC50 was 0.79 µM.
For COCC(=O)N1[C@H](C)CN(Cc2cnc(NC(=O)/C(=N/O[C@@H]3CCOC3)c3ccc(S(=O)(=O)C4CC4)cc3)s2)C[C@@H]1C [Example 11], the EC50 was 0.88 µM.
CN(C)CCOc1ccc2nc(NC(=O)/C(=N/O[C@@H]3CCOC3)c3ccc(S(=O)(=O)C4CC4)cc3)sc2n1 [Example 13-3] gave an EC50 of 0.17 µM.
With O=C(Nc1ncc(CN2CCOCC2)s1)/C(=N/O[C@@H]1CCOC1)c1ccc(S(=O)(=O)C2CC2)cc1 [Example 18-2] the EC50 was 0.93 µM.
Compound COc1ccc2nc(NC(=O)/C(=N/O[C@@H]3CCOC3)c3ccc(S(=O)(=O)C4CC4)cc3)sc2n1 [Example 24-25] has an EC50 of 0.084 µM.
In the case of O=C(O)CCSc1cnc(NC(=O)/C(=N/O[C@@H]2CCOC2)c2ccc(S(=O)(=O)C3CC3)cc2)s1 [Example 46-1], the EC50 is reported as 0.1 µM.
Compound CC(=O)N1CCC(OCc2cnc(NC(=O)/C(=N/O[C@@H]3CCOC3)c3ccc(S(=O)(=O)C4CC4)cc3)s2)CC1 [Example 56] has an EC50 of 0.32 µM.
With O=C(Nc1ncc(F)s1)/C(=N/OCc1ncccn1)c1ccc(S(=O)(=O)C2CC2)cc1 [Example 62-5] the EC50 was 0.41 µM.
Cn1ccc(CO/N=C(/C(=O)Nc2ncc(F)s2)c2ccc(S(=O)(=O)C3CC3)cc2)n1 [Example 62-10] gave an EC50 of 0.27 µM.
Compound O=C(Nc1ncc(F)s1)/C(=N/OCCCO)c1ccc(S(=O)(=O)C2CC2)cc1 [Example 67-2] has an EC50 of 0.39 µM.
O=C(Nc1ncc(F)s1)/C(=N/O[C@@H]1CCOC1)c1ccc(S(=O)(=O)N2CCCOCC2)cc1 [Example 82-22] showed an EC50 of 0.26 µM.
Work on O=C(Nc1ncc(F)s1)/C(=N/O[C@@H]1CCOC1)c1ccc(S(=O)(=O)NCCF)cc1 [Example 82-78] yielded an EC50 of 0.6 µM.
With Cn1ccnc1CS(=O)(=O)c1ccc(/C(=N\O[C@@H]2CCOC2)C(=O)Nc2ncc(F)s2)cc1 [Example 84-12] the EC50 was 0.41 µM.
Compound CS(=O)(=O)c1ccc(/C(=N\OC2CCCC2)C(=O)Nc2ncc(C(N)=O)s2)cc1 [Example 91-8] has an EC50 of 0.52 µM.
Work on O=C(Nc1nccs1)/C(=N/OCc1ccccn1)c1ccc(S(=O)(=O)C2CC2)cc1 [Example 94-6] yielded an EC50 of 0.51 µM.
In the case of COCCCS(=O)(=O)c1ccc(/C(=N\O[C@@H]2CCOC2)C(=O)Nc2ncc(COC)s2)cc1 [Example 98-1], the EC50 is reported as 0.84 µM.
COCCCS(=O)(=O)c1ccc(/C(=N\O[C@@H]2CCOC2)C(=O)Nc2nc3ccc(OCCO)nc3s2)cc1 [Example 98-7] gave an EC50 of 0.23 µM.
C[C@@H](CO)O/N=C(/C(=O)Nc1ncc(Cl)s1)c1ccc(S(=O)(=O)C2CC2)cc1 [Example 104-2] gave an EC50 of 0.3 µM.
Cc1nsc(NC(=O)/C(=N/O[C@@H]2CC[C@@H](O)C2)c2ccc(S(=O)(=O)C3CC3)cc2)n1 [Example 116] gave an EC50 of 0.57 µM.
COc1cnc(NC(=O)/C(=N/O[C@@H]2CC[C@@H](OC)C2)c2ccc(S(=O)(=O)C3CC3)cc2)cn1 [Example 139-41] was tested, and the EC50 was 0.54 µM.
Work on CCN(CCO)S(=O)(=O)c1ccc(/C(=N\O[C@@H]2CCOC2)C(=O)Nc2cnc(C3CC3)cn2)cc1 [Example 139-94] yielded an EC50 of 0.35 µM.
COCCN(C)S(=O)(=O)c1ccc(/C(=N\O[C@@H]2CCOC2)C(=O)Nc2ncc(CN3CCN(C)CC3)s2)cc1 [Example 139-125] showed an EC50 of 0.76 µM.
COCCCS(=O)(=O)c1ccc(/C(=N\OCc2ncccn2)C(=O)Nc2nc3ccc(OC)nc3s2)cc1 [Example 139-134] gave an EC50 of 0.18 µM.
COCCCS(=O)(=O)c1ccc(/C(=N\OC2CCCC2)C(=O)Nc2ccc(C(N)=O)cn2)cc1 [Example 139-159] showed an EC50 of 0.52 µM.
For COCCCS(=O)(=O)c1ccc(/C(=N\O[C@@H]2CC[C@@H](O)C2)C(=O)Nc2ncc(C)s2)cc1 [Example 139-182], the EC50 was 0.52 µM.
COCCCS(=O)(=O)c1ccc(/C(=N\O[C@@H]2CCOC2)C(=O)Nc2nc3ccc(OCCO)cc3s2)cc1 [Example 139-214] showed an EC50 of 0.57 µM.
CNc1ccc2nc(NC(=O)/C(=N/O[C@@H]3CCOC3)c3ccc(S(=O)(=O)CCCOC)cc3)sc2n1 [Example 139-221] gave an EC50 of 0.13 µM.
In the case of CC(=O)N1CCN(Cc2cnc(NC(=O)/C(=N/O[C@@H]3CCOC3)c3ccc(S(=O)(=O)[C@H]4CCOC4)cc3)s2)C[C@H]1C [Example 139-237], the EC50 is reported as 0.6 µM.
Compound CNCCOc1ccc2nc(NC(=O)/C(=N/O[C@@H]3CCOC3)c3ccc(S(=O)(=O)NCCO)cc3)sc2n1 [Example 139-244] has an EC50 of 0.46 µM.
